The values below come from patent US9957287B2, “Methods and compositions to treat type-1 and type-2 diabetes” (CORNELL UNIVERSITY, priority 2016, dated 2018).

The test concerns β cells of DKO mice fed a HFD. The experiment in a line: MEK162 treatment in vivo of TLR2/TLR4 DKO mice on HFD, histological analysis. Set-up: species or system mouse. On the procedure: For S961 studies, 45-week-old mice under a LFD or HFD were anesthetized and subcutaneously implanted with osmotic pumps (ALZET) filled with insulin receptor antagonist S961 4 or vehicle PBS. Mice were infused with S961 at the dose of 10 nmoles/week for 2 weeks, followed by euthanization and histological analysis of islets. For MEK162 studies, TLR2/TLR4 DKO mice on HFD for 8 weeks were orally gavaged with MEK162 (20 mg/kg body weight, LC laboratories) or vehicle, twice daily for 2 days, followed by euthanization and histological analysis.
For quantification of β cell area, six independent pancreatic tissue sections from 3-4 mice were randomly selected. Total insulin-positive and total pancreas area was measured using the Aperio Imagescope and ImageJ, from which percentage of insulin-positive area was calculated. For quantitation of β cell proliferation, cytoplasmic insulin and nuclear Ki67 double-positive cells were counted as proliferating β cells. Percent of proliferating cells were calculated by dividing the number of Ki67 and insulin-double positive cells by insulin-positive cells of each islet. Islets from 3-4 mice in each group with ˜200-400 β cells in LFD and ˜2,000-7,300 β cells in HFD cohorts were analyzed using the ImageJ software.
Pancreas was fixed in 4% paraformaldehyde, embedded in paraffin, and sectioned by Cornell Histology Core Facility. Ten-micrometer-thick paraffin sections were stained with hematoxylin/eosin. For staining of insulin with immunofluorescence, paraffinembedded sections were rehydrated by sequentially washing in xylene, 100%, 95%, 75% ethanol and water. Then slides were boiled in […] for antigen exposure. After blocking using 5% donkey serum, primary guinea pig anti-rat insulin antibody (Linco, 1:200) were applied and incubated overnight at 4° C., followed with washes and incubation with FITC-conjugated donkey anti-guinea pig IgG (Jackson ImmunoResearch, 1:200). […] Fluorescence Images were captured under a Zeiss LSM710 confocal microscope at Cornell Biotechnology Resource Center Imaging Facility. […]

Setting [1] is: DKO mice on HFD for 8 weeks, MEK162 oral 20 mg/kg twice daily for the last 2 days.

Turning to `Cn1cnc2c(F)c(Nc3ccc(Br)cc3F)c(C(=O)NOCCO)cc21` [MEK162], the ERK activation entry (DKO mice fed a HFD, MEK162 oral 20 mg/kg twice daily for 2 days) is “blocked”. Under setting [1], the “nuclear entry of Cyclin D2” value was “abolished” and the “β cell proliferation (Ki67-positive β cells)” value was “abolished”.
